Laboratory results published in ChEMBL document CHEMBL5465560, “Selectivity Literature for EUbOPEN Chemogenomic Library” (2024).

Experiments:
[1] = biological target: Mitogen-activated protein kinase kinase kinase kinase 5 (Homo sapiens) (UniProt Q9Y4K4); assay: Selectivity interaction (KinomeScan (DiscoverX)) EUB0000607a MAP4K5; conditions: at 10 µM
[2] = biological target: DNA-dependent protein kinase catalytic subunit (Homo sapiens) (UniProt P78527); assay: Selectivity interaction (ActivX KiNativ screen (kinase selectivity in THP-1 cell lysates)) EUB0000639a PRKDC; assay type: subcellular; conditions: lysate, at 5 µM
[3] = biological target: Serine/threonine-protein kinase SIK2 (Homo sapiens) (UniProt Q9H0K1); conditions: at 10 µM
[4] = biological target: Serine/threonine-protein kinase RIO2 (Homo sapiens) (UniProt Q9BVS4); assay: Selectivity interaction (KinomeScan (DiscoverX)) EUB0000595a RIOK2; conditions: at 10 µM
[5] = biological target: T1, Cyclin-dependent kinase-like 5 (Homo sapiens) (UniProt O76039); assay: Selectivity interaction (KinomeScan (DiscoverX)) EUB0000595a CDKL5; conditions: at 10 µM
T1 sequence (whole entry): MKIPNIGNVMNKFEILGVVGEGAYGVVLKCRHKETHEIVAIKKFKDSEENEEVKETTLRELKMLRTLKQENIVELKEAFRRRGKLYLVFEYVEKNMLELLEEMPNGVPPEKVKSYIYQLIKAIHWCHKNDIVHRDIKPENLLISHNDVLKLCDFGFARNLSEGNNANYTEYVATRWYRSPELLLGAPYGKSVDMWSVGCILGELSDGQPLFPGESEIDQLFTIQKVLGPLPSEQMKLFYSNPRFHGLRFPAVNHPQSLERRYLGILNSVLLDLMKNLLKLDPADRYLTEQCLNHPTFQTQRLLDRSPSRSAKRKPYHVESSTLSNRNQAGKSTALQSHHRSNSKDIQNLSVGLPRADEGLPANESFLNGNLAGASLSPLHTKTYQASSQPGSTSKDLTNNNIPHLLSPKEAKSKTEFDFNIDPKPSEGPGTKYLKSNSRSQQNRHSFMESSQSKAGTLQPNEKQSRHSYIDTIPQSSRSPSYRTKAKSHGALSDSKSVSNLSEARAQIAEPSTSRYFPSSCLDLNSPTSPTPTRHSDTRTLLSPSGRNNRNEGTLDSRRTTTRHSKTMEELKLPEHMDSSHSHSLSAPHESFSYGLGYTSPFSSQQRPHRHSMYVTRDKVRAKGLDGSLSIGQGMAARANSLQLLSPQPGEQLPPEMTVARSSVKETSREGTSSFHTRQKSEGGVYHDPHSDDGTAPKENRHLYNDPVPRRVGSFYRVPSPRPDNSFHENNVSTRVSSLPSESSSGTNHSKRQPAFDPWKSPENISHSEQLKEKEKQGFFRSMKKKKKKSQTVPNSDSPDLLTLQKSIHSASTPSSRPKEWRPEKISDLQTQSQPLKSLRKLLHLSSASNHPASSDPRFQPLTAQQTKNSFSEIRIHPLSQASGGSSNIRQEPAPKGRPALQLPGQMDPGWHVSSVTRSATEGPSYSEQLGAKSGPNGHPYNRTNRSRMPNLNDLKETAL

[6] = biological target: T2, Serine/threonine-protein kinase TNNI3K (Homo sapiens) (UniProt Q59H18); assay: Selectivity interaction (KinomeScan (DiscoverX)) EUB0001049a TNNI3K; conditions: at 1 µM
T2 sequence (whole entry): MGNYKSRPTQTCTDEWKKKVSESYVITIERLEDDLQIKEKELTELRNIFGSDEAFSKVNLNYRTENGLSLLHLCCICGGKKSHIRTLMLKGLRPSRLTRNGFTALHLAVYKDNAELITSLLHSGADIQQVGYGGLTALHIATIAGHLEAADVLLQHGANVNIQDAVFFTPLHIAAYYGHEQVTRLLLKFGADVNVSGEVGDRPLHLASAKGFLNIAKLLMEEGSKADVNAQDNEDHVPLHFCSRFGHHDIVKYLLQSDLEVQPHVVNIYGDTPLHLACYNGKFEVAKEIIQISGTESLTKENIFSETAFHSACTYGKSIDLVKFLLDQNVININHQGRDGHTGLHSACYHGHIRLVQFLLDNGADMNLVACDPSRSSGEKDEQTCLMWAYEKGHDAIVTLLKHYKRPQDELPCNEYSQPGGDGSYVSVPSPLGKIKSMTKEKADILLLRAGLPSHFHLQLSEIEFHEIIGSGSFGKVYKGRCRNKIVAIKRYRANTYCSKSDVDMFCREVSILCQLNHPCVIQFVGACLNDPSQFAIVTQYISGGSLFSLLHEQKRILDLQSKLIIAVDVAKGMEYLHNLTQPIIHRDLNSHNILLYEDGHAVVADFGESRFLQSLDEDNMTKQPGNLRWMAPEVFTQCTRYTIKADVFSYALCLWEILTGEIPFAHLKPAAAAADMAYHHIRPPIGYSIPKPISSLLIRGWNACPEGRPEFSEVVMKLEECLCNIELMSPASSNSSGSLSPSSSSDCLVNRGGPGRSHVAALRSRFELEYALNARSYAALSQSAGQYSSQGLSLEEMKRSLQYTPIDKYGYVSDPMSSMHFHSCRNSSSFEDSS

[7] = biological target: T1, Cyclin-dependent kinase-like 5 (Homo sapiens); assay: Selectivity interaction (KinomeScan (DiscoverX)) EUB0001049a CDKL5; conditions: at 1 µM
[8] = biological target: Serine/threonine-protein kinase 32A (Homo sapiens) (UniProt Q8WU08); assay: Selectivity interaction (Ambit KINOMEscan and KiNATiv profiling in Jurkat cells) EUB0000090b STK32A; assay type: cell-based; conditions: at 1 µM
[9] = biological target: Death-associated protein kinase 3 (Homo sapiens) (UniProt O43293); assay: Selectivity interaction (KinomeScan (DiscoverX)) EUB0000092b DAPK3; conditions: at 10 µM
[10] = biological target: T3, Dual specificity mitogen-activated protein kinase kinase 3 (Homo sapiens) (UniProt P46734); assay: Selectivity interaction (KinomeScan (DiscoverX)) EUB0001619a MAP2K3; conditions: at 1 µM
T3 sequence (whole entry): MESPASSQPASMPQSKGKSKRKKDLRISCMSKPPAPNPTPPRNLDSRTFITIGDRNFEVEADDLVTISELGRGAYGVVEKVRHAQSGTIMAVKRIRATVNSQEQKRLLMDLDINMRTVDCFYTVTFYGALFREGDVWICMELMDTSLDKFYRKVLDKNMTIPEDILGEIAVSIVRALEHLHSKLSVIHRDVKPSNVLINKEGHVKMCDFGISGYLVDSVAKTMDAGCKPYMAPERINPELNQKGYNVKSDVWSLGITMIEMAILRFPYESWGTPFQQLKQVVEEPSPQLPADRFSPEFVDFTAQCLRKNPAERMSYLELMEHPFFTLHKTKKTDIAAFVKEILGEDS

Chain of Mitogen-activated protein kinase kinase kinase kinase 5 (Homo sapiens) (Q9Y4K4 whole entry, looked up): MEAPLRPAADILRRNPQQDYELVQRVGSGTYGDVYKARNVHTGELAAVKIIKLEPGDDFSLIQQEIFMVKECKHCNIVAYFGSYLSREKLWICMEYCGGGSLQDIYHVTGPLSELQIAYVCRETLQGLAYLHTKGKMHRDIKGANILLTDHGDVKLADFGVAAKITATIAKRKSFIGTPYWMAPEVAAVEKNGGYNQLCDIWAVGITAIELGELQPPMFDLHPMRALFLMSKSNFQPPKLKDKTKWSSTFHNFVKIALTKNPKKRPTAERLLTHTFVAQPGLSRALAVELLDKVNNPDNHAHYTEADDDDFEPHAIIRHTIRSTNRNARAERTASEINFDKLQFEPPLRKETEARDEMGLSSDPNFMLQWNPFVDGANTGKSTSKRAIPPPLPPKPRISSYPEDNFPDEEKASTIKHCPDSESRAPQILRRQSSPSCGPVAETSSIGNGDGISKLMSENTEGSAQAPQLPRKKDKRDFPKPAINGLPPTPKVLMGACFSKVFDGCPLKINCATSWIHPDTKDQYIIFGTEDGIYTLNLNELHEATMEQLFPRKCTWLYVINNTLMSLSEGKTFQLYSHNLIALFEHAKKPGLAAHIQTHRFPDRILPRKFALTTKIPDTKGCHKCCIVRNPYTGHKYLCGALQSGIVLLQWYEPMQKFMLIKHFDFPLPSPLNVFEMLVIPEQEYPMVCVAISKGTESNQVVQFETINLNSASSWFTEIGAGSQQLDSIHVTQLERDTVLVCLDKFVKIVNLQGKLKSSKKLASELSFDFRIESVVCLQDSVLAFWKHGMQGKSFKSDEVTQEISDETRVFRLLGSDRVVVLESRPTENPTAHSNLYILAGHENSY
Chain of Serine/threonine-protein kinase SIK2 (Homo sapiens) (Q9H0K1 whole entry, looked up): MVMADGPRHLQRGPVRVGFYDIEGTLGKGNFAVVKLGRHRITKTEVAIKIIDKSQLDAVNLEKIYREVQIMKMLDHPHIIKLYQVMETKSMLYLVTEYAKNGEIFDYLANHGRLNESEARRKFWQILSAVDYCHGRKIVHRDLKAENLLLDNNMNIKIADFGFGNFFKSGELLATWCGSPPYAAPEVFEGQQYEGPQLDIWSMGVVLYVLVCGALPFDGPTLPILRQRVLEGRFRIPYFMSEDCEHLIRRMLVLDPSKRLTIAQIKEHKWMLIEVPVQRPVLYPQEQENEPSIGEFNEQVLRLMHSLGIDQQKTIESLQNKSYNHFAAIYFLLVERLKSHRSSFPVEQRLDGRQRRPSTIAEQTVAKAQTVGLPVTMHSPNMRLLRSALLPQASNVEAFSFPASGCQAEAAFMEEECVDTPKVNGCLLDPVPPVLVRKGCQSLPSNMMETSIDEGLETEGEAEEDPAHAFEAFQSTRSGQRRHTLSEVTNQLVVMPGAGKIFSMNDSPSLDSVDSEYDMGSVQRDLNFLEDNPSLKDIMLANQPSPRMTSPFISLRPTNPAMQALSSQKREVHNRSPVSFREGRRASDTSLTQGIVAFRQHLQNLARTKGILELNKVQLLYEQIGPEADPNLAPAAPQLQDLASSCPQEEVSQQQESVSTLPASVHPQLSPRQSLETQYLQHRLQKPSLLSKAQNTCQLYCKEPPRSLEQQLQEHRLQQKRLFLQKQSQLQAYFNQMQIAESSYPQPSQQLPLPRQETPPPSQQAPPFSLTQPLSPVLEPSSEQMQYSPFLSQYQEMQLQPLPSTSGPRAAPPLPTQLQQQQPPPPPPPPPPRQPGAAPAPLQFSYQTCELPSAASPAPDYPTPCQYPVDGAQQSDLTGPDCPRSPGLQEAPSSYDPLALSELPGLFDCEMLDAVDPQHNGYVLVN
Chain of Death-associated protein kinase 3 (Homo sapiens) (O43293 whole entry, looked up): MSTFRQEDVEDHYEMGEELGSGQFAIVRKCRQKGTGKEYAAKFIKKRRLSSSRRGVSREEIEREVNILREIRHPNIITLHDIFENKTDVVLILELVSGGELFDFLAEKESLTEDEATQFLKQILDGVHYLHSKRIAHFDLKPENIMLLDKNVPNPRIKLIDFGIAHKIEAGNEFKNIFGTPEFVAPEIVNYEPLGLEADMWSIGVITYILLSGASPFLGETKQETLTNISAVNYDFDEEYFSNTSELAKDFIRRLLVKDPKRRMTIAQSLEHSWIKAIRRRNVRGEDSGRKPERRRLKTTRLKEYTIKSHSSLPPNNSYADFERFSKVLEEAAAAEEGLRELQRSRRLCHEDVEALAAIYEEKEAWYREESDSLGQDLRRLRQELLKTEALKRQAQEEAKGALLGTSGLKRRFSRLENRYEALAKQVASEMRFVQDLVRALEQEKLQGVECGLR
Chain of Serine/threonine-protein kinase RIO2 (Homo sapiens) (Q9BVS4 whole entry, looked up): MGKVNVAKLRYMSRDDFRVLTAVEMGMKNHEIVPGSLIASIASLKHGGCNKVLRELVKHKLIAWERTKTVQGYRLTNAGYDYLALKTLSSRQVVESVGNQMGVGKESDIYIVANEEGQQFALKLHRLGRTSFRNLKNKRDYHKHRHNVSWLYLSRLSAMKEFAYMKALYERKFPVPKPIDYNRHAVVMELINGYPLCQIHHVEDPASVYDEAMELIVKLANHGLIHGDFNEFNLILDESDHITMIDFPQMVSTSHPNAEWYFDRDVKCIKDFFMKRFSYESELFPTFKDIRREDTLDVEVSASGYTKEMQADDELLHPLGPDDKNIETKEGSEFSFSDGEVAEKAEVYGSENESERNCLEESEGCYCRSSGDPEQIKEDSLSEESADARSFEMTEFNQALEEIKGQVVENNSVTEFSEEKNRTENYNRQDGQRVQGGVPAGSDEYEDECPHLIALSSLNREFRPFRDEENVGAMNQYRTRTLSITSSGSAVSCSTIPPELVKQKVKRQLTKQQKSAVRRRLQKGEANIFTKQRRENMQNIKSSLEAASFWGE
Chain of Serine/threonine-protein kinase 32A (Homo sapiens) (Q8WU08 whole entry): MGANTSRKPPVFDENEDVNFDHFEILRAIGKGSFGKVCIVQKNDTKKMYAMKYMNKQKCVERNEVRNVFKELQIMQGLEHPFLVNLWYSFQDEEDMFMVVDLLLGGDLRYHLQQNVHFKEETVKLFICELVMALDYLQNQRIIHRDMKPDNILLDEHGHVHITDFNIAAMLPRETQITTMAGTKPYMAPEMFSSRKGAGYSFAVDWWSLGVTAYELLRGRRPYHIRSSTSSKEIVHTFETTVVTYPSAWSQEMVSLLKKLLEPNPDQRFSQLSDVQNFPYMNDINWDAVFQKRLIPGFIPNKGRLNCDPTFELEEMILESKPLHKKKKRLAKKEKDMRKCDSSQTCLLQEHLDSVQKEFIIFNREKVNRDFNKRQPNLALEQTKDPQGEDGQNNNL

For `CNC(=O)Nc1ccc(-c2nc(N3CC4CCC(C3)O4)c3cnn(C4CCC5(CC4)OCCO5)c3n2)cc1`, the % of control [1] was 83%.
With `CC[C@@H]1[C@H](F)C(=O)N[C@@H]1COc1nccc2cc(C(N)=O)c(OC)cc12` [ZIMLOVISERTIB] the % of inhibition [2] was -11.7%.
`COCC(=O)NC/C=C/c1ccc2ncnc(Nc3ccc(Oc4ccc(C)nc4)c(C)c3)c2c1` [CP-724714] showed a % of control [3] of 84%, a % of control [4] of 100% and a % of control [5] of 100%.
For `COc1cc(Nc2nc(C)cc(-c3cnn4nc(OC)ccc34)n2)cc(C(F)(F)F)c1`, the % of control [6] was 100% and the % of control [7] was 82%.
For `CN(C)C/C=C/C(=O)Nc1ccc(C(=O)N2CCCC(Nc3ncc(Cl)c(-c4c[nH]c5ccccc45)n3)C2)cc1` (stereo not given), the % of control [8] was 99%.
Molecule `CCC(=O)N1CCN(c2ccc(-n3c(=O)ccc4cnc5ccc(-c6cnc7ccccc7c6)cc5c43)cc2C(F)(F)F)CC1` has a % of control [9] of 82%.
`N#Cc1cccc(-c2c[nH]c3ncnc(N4CCOCC4)c23)c1` gave a % of control [10] of 71%.
